Measurements: ChEMBL document CHEMBL4665710, “Myrcaulones A-C, Unusual Rearranged Triketone-Terpene Adducts from Myrciariacauliflora” (J Nat Prod, 2020)
Calls of active or inactive are those of the source. The rule behind the calls is not given here.

What was measured:
RAW264.7 [1] = assay: Anti-inflammatory activity in mouse RAW 264.7 cells assessed as reduction in LPS-induced TNF-alpha production preincubated for 2 hrs followed by LPS-stimulation measured after 24 hrs by ELISA; assay type: functional, cell-based; conditions: time 26.0 hrs
RAW264.7 [2] = assay: Anti-inflammatory activity in mouse RAW 264.7 cells assessed as reduction in LPS-induced TNF-alpha production at 7 uM preincubated for 2 hrs followed by LPS-stimulation measured after 24 hrs by ELISA; assay type: functional, cell-based; conditions: time 26.0 hrs
RAW264.7 [3] = assay: Anti-inflammatory activity in mouse RAW 264.7 cells assessed as reduction in LPS-induced nitric oxide production at 7 uM preincubated for 2 hrs followed by LPS-stimulation measured after 24 hrs by Griess reagent method; assay type: functional, cell-based; conditions: time 26.0 hrs
RAW264.7 [4] = assay: Cytotoxicity against mouse RAW 264.7 cells assessed as reduction in cell viability by MTT assay; assay type: cell-based
RAW264.7 [5] = assay: Anti-inflammatory activity in mouse RAW 264.7 cells assessed as reduction in LPS-induced nitric oxide production preincubated for 2 hrs followed by LPS-stimulation measured after 24 hrs by Griess reagent method; assay type: functional, cell-based; conditions: time 26.0 hrs

SMILES	Activity (RAW264.7 [1])	Activity (RAW264.7 [2])	Activity (RAW264.7 [3])	Activity (RAW264.7 [4])	Activity (RAW264.7 [5])
CO[C@@]1(C(C)=O)CC2=C(C1=O)[C@H](C(C)C)C[C@@]1(CC[C@H]3C[C@@H]1C3(C)C)O2	Dose-dependent effect	Active	Active	Non-Toxic	Dose-dependent effect
CC[C@H](C)[C@H]1C[C@@]2(CC[C@H]3C[C@@H]2C3(C)C)OC2=C1C(=O)[C@](OC)(C(C)=O)C2	Dose-dependent effect	Active	Active	Non-Toxic	Dose-dependent effect
